# Test results reported in PubChem BioAssay AID182 (DTP/NCI, 2004).
# Values joined by “and” are separate entries in the source; they are usually repeats but may differ in a detail not shown here. Identical values can stand only once. Toxic doses and inconclusive results are not listed.
# Tested on: BDF1 mice, P388/ADR leukemia ip, median survival T/C
# Assay: NCI In Vivo Anticancer Drug Screen. Data for tumor model P388 Leukemia resistant to Adriamycin; NSC 123127, Developed at Scr 06 and 41 (intraperitoneal) in B6D2F1 (BDF1) mice
# Conditions: endpoint: median survival time, higher = longer survival
# Description: The antitumor activity of compounds was measured in mice bearing transplantable tumors. Survival or tumor size were measured and the results are expressed as the measurement made in the treated group (T) divided by the measurement made in the vehicle treated control group (C). The tumor model used in this assay is P388 Leukemia resistant to Adriamycin; NSC 123127, Developed at Scr 06 and 41 (intraperitoneal) in B6D2F1 (BDF1) mice
# [1] = dose: 2.88 mg/kg/injection, schedule: Q04DX003 (ip), vehicle: water
# [2] = dose: 1.73 mg/kg/injection, schedule: Q04DX003 (ip), vehicle: water
# [3] = dose: 4.8 mg/kg/injection, schedule: Q04DX003 (ip), vehicle: water
smiles,measurement,setting,value
CC[C@]1(O)C[C@H]2CN(CCc3c([nH]c4ccccc34)[C@@](C(=O)OC)(c3cc4c(cc3OC)N(C=O)[C@H]3[C@@](O)(C(=O)OC)[C@H](OC(C)=O)[C@]5(CC)C=CCN6CC[C@]43[C@@H]65)C2)C1,T/C,"dose: 0.5 mg/kg/injection, schedule: Q04DX003 (ip), vehicle: saline",92 % of control
same,T/C,"dose: 0.65 mg/kg/injection, schedule: Q04DX003 (ip), vehicle: saline",111 % of control
same,T/C,"dose: 1.0 mg/kg/injection, schedule: Q04DX003 (ip), vehicle: saline",92 % of control
same,T/C,"dose: 1.8 mg/kg/injection, schedule: Q04DX003 (ip), vehicle: saline",95 % of control
same,T/C,"dose: 3.0 mg/kg/injection, schedule: Q04DX003 (ip), vehicle: saline",87 % of control
same,T/C,"dose: 389.0 micrograms/kg/injection, schedule: Q04DX003 (ip), vehicle: saline",109 % of control
same,T/C,"dose: 432.0 micrograms/kg/injection, schedule: Q04DX003 (ip), vehicle: saline",113 % of control
same,T/C,"dose: 648.0 micrograms/kg/injection, schedule: Q04DX003 (ip), vehicle: saline",112 % of control
same,T/C,"dose: 720.0 micrograms/kg/injection, schedule: Q04DX003 (ip), vehicle: saline",107 % of control
same,T/C,"dose: 1080.0 micrograms/kg/injection, schedule: Q04DX003 (ip), vehicle: saline",110 % of control
same,T/C,"dose: 1200.0 micrograms/kg/injection, schedule: Q04DX003 (ip), vehicle: saline",101 % of control
same,T/C,"dose: 1800.0 micrograms/kg/injection, schedule: Q04DX003 (ip), vehicle: saline",107 % of control
CCCCCCCC(=O)OCC(=O)[C@]1(O)Cc2c(O)c3c(c(O)c2[C@@H](OC2CC(N)C(O)C(C)O2)C1)C(=O)c1c(OC)cccc1C3=O (stereo partly drawn),T/C,[1],121 % of control
COc1cccc2c1C(=O)c1c(O)c3c(c(O)c1C2=O)C[C@@](O)(C(C)=O)C[C@@H]3OC1CC(N)C(O)C(C)O1 (stereo partly drawn),T/C,[2],122 % of control
same,T/C,[1],114 % of control
same,T/C,[3],121 % of control
same,T/C,"dose: 8.0 mg/kg/injection, schedule: Q04DX003 (ip), vehicle: water",104 % of control and 107 % of control
COc1cc([C@@H]2c3cc4c(cc3[C@@H](OC3OC5CO[C@@H](c6cccs6)OC5C(O)C3O)[C@H]3COC(=O)[C@H]23)OCO4)cc(OC)c1O (stereo partly drawn),T/C,"dose: 13.33 mg/kg/injection, schedule: Q04DX003 (ip), vehicle: saline",123 % of control
COc1cccc2c1C(=O)c1c(O)c3c(c(O)c1C2=O)C[C@@](O)(C(=O)CO)C[C@@H]3OC1CC(N)C(O)C(C)O1 (stereo partly drawn),T/C,"dose: 0.65 mg/kg/injection, schedule: Q01DX009 (ip), vehicle: saline",107 % of control
same,T/C,"dose: 1.08 mg/kg/injection, schedule: Q01DX009 (ip), vehicle: saline",109 % of control
same,T/C,"dose: 1.3 mg/kg/injection, schedule: Q04DX003 (ip), vehicle: saline",112 % of control
same,T/C,"dose: 1.3 mg/kg/injection, schedule: Q04DX003 (ip), vehicle: water",102 % of control and 115 % of control
same,T/C,"dose: 1.5 mg/kg/injection, schedule: Q04DX003 (ip), vehicle: water",100 % of control
same,T/C,[2],116 % of control
same,T/C,"dose: 1.8 mg/kg/injection, schedule: Q01DX009 (ip), vehicle: saline",110 % of control
same,T/C,"dose: 2.16 mg/kg/injection, schedule: Q04DX003 (ip), vehicle: saline",109 % of control
same,T/C,"dose: 2.16 mg/kg/injection, schedule: Q04DX003 (ip), vehicle: water",99 % of control and 120 % of control and 102 % of control
same,T/C,[1],124 % of control
same,T/C,"dose: 3.0 mg/kg/injection, schedule: Q01DX009 (ip), vehicle: saline",96 % of control
same,T/C,"dose: 3.0 mg/kg/injection, schedule: Q04DX003 (ip), vehicle: water",100 % of control
same,T/C,"dose: 3.6 mg/kg/injection, schedule: Q04DX003 (ip), vehicle: saline",120 % of control
same,T/C,"dose: 3.6 mg/kg/injection, schedule: Q04DX003 (ip), vehicle: water",115 % of control and 122 % of control and 100 % of control
same,T/C,[3],103 % of control
same,T/C,"dose: 6.0 mg/kg/injection, schedule: Q04DX003 (ip), vehicle: water",99 % of control [middle of 4 runs]
same,T/C,"dose: 10.0 mg/kg/injection, schedule: Q04DX003 (ip), vehicle: water",98 % of control
same,T/C,"dose: 66.7 mg/kg/injection, schedule: Q04DX003 (ip), vehicle: water",96 % of control
O=P1(N(CCCl)CCCl)NCCCO1 (stereo not drawn),T/C,"dose: 108.0 mg/kg/injection, schedule: Q01DX001 (ip), vehicle: saline",476 % of control
same,T/C,"dose: 180.0 mg/kg/injection, schedule: Q01DX001 (ip), vehicle: saline",475 % of control
